Measured values reported in patent US20250230215A1, “IMMUNE CELLS EXPRESSING GLUCOSE TRANSPORTER 5 (GLUT5) AND COMPOSITIONS AND METHODS INCLUDING THE SAME” (Memorial Sloan-Kettering Cancer Center, priority 2021, published 2025).
In brackets after ≈: the same amount, converted by molar mass.

Experiments:
[1] = molecular target: T1, KHK (Homo sapiens, UniProt P50053); assay: 13C NMR of [2-13C]F1P in HepG2 cell extract with KHKi treatment; type: cell-based; details: treatment at 4 hr in vitro
T1 construct: endogenous in cells; host or cells: HepG2 cells
T1 sequence (P50053 1-298): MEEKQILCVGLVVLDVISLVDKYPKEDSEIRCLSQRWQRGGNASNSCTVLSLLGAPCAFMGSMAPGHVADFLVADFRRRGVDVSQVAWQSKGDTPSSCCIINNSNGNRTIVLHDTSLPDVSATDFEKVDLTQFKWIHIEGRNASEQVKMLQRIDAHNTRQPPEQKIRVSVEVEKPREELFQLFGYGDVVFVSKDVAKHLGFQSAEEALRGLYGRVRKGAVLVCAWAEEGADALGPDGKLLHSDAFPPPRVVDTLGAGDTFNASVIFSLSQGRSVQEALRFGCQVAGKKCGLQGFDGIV
From the text: FIGS. 11A-11C provide fructose converted to fructose-1-phosphate (F1P) and later to lactate in vivo measured in transformed hepatocytes (HepG2 cells) using [2-^13C] fructose. FIG. 11A provides ^13C NMR spectra of media containing [2-^13C] fructose exposed to HepG2 cells. FIG. 11B provides a quantification of fructose consumption by HepG2.
Translation of novel hyperpolarized probes into in vivo animal models represents a great technical advance in the exploration of the modulate metabolism induced by GLUT5-OV. Using the optimized probe formulation for HP fructose, the metabolic conversion of fructose is explored in vivo in the liver of wild type B6 mice, as previously shown. […] [2-^13C]F1P resonates downfield of the C2 pyranose resonance; in Example 1, this conversion was measured in transformed hepatocytes (HepG2 cells, FIG. 11) using [2-^13C] fructose. When further converted, C2 lactate is generated (resonating at 70 ppm) from fructose and this has been detected previously in vivo derived from HP glucose (Rodrigues et al. Nat Med 20, 93-97 (2014)) and pyruvate (Park et al. Magn Reson Med 75, 973-984 (2016)). All imaging studies are conducted under IACUC-approved protocol #13-12-019. Briefly, mice are imaged using a 3T Bruker MRI equipped with a dual tune ^1H/^13C volume coil. […] This is then extracted and labeled metabolites are measured by LC/MS and NMR. […]

[2] = Blood, tumor and liver fructose after IP injection of fructose in B16 tumor bearing mice; type: in vivo
Protocol: Further this supports that HP fructose reaches the tumor and provides a platform for imaging.
In order to determine the effect of fructose addition into GLUT5-OV T cells in vivo, the assay is optimized for delivering fructose into the tumor microenvironment. Specifically, three methods are tested, including: (i) intraperitoneal (IP) and (ii) intravenous (IV) injections of fructose, and (iii) water bottle with high-fructose corn syrup (HFCS). IP and IV injections (4 g/kg) are conducted daily and 25% HFCS in water is provided for three weeks; twice a week during this time the fructose level in circulating blood is measured and an endpoint tumor fructose measurement is taken. A B16 melanoma mouse model is utilized. Briefly, B16 cells (2×10^5) are engrafted subcutaneously into C57BL/6 mice and assayed on Day 7 post-tumor-engraftment. In a second cohort of mice, with the same conditions, co-administration of the KHKi^53 used in Example 3 is performed to block the uptake of the liver and small intestine (the predominant sites of fructose uptake and subsequent phosphorylation by KHK). As shown in Example 1, a single IP injection of fructose was piloted and both the tumors and liver were extracted after 1 hr (FIG. 12). […] Given this PK data, this dose of KHKi is explored using multiple routes of delivery. Specially, a dose of 10 mg/kg was used and administered IP at the same time as the fructose delivery. Fructose concentration is measured in the circulating blood as well as the endpoint tumor with all 3 delivery methods (n=10 mice per group, total of 80 mice) utilizing a standard kit assay. See Goncalves et al. Science 363, 1345-1349 (2019). Taken together, these experiments provide the necessary data to determine which fructose delivery method is best for the remaining experiments.
Results, potential challenges and alternative solutions: In some embodiments, high dose injections of fructose allows for a transient but substantial increase in blood as well as tumor fructose levels (>2 mM). It was found by Applicant that with a single IP injection of fructose the blood concentration can be raised to >10 mM and tumor concentration can be raised to >2 mM. The dosing schedule relative to T-cell action is further optimized. It is possible that the fructose levels of tumors can not be further elevated in vivo due to the action of the liver and gluconeogenesis. […] This is readily in the range of detection for HP MRI. It is possible that HP lactate can not be detected in tumors from fructose due to the cellularity. At the minimum, however, HP F6P can be detected, which was previously detected in tumors that overexpress GLUT5; this informs on the degree of fructose metabolism into glycolysis. […]

[3] = Pharmacokinetic analysis of the KHKi in vivo; parameters: species or system mice; details: mouse
[4] = Hyperpolarized lifetime and polarization of HP fructose probes; type: physicochemical
From the text: FIG. 9A provides the mechanism for transport by GLUT5 and the first step of metabolism of fructose to fructofuranose-6-phosphate by hexokinase. FIG. 9B provides a T2-weighted image of a transgenic model of prostate cancer (TRAMP) mouse with tumor only on the right side of the prostate. Metabolic images of total hyperpolarized [2-^13C] fructose resonances (FIG. 9C) and the composite 0-fructofuranose-6-phosphate and β-fructofuranose (FIG. 9D) are shown overlaid on the T2 weighted image. Resonances corresponding to the β-fructopyranose and composite p-fructofuranose-6-phosphate and p-fructofuranose are shown in the corresponding spectral array (FIG. 9E). FIGS. 9A-9E adapted from Keshari et al. J Am Chem Soc. 2009 Dec. 9; 131(48):17591-6. […] An unassigned, spurious, low signal-to-noise resonance appears at 115 ppm. FIG. 9F provides a synthetic scheme for U-^2H-[2-^13C] fructose. The C2 is annotated by an C. FIG. 9G provides representative dynamic spectra of HP [2-^13C] fructose dissolved in D2O and HP U-^2H-[2-^13C] fructose dissolved in D20. Both solutions were approximately 30 mM and spectra acquired using 5° flip angle every 3 s.
Enhancement of hyperpolarized lifetimes using D2O solvation and application to HP fructose: In previous experiments, the necessary strategies and combined methods to develop not only novel probes for HP MRI but also bolus tracing experiments to confirm biochemistry in vivo. See Salamanca-Cardona et al. Cell Metab 26, 830-841 e833 (2017). While many molecular strategies have been developed for HP MRI, they generally suffer from short lifetimes (≤10 s) making flux through pathways of interest difficult to visualize in vivo. […] See Keshari et al. J Am Chem Soc 131, 17591-17596 (2009). In recent work, It was shown by the Applicant that utilization of rapid exchange between H2O and D2O can dramatically increase the lifetimes of the HP probes by greatly reducing dipolar relaxation. See Cho et al. J Magn Reson 295, 57-62 (2018). As such, a synthesis was developed for [2-^13C,U-^2H7] fructose at gram scale (FIG. 9F) as well as a preparation to hyperpolarize it. […]

[5] = PBS, pH 7.4; cited from earlier work
[6] = test system: red blood cell pyruvate kinase; details: over a broad range of PKLR genotypes; cited from earlier work
[7] = molecular target: PKM2 (Homo sapiens, UniProt P14618); details: PKM2 activation; cited from earlier work
[8] = single IP injection of fructose

Chain of PKM2 (P14618 whole entry): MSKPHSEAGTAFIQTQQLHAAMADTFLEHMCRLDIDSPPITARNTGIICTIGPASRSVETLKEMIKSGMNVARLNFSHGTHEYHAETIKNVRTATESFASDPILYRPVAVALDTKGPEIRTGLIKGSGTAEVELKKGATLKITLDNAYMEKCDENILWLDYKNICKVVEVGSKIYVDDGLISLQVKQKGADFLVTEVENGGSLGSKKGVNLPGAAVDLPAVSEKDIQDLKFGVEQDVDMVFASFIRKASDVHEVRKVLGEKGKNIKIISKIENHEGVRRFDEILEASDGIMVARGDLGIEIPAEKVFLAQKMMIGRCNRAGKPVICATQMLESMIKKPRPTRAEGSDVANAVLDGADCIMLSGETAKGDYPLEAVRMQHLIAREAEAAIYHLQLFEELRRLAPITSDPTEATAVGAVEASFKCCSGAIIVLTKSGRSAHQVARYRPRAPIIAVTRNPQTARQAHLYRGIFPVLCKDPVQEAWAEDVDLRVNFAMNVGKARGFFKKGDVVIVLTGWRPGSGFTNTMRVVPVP

## N#Cc1c(C(F)(F)F)cc(N2CCN(CCO)CC2)nc1N1CCCC(CO)C1 (centres unmarked) [KHKi, 6-(4-(2-Hydroxyethyl)piperazin-1-yl)-2-(3-(hydroxymethyl)-piperidin-1-yl)-4-(trifluoromethyl)nicotinonitrile]
[1]
  change in F1P: decrease in F1P
[2]; first attempt with the KHKi
  extension of blood half-life of fructose: 50%
[2]; single dose of KHKi with single IP injection of fructose, tumors extracted after 1 hr
  tumor fructose with KHKi: further enhanced
[3]; 10 mg/kg, approximate conversion
  Cmax: ~1 µM
[3]; KHKi 10 mg/kg
  Cmax: 475 ng/mL
  half-life: 2 h

## [2H]C([2H])(O)[13C](=O)[C@@]([2H])(O)[C@]([2H])(O)[C@]([2H])(O)C([2H])([2H])O [[2-^13C,U-^2H7] fructose]
[4]
  achieved polarization: greater than 10%
[4]; D2O solvation
  hyperpolarized lifetime: 1.5 min
[4]; versus HP [2-13C] fructose
  lifetime relative to previously shown: 6 times

## Cn1c2cc([S+](C)[O-])sc2c2cnn(Cc3cccc(N)c3)c(=O)c21 (centres unmarked) [TEPP-46]
[5]
  aqueous solubility: 79.5 µM (≈ 29.6 µg/mL)

## O=C(c1ccc(NS(=O)(=O)c2cccc3cccnc23)cc1)N1CCN(CC2CC2)CC1 [AG 348]
[6]
  effect on red blood cell pyruvate kinase: increases enzymatic activity, protein stability, and ATP levels

## Nc1cccc(S(=O)(=O)N2CCCN(S(=O)(=O)c3ccc4c(c3)OCCO4)CC2)c1 [DASA-58]
[7]
  AC90: 680 nM

## O=C(CO)[C@@H](O)[C@H](O)[C@H](O)CO [fructose]
[2]; [8]
  blood concentration of fructose: > 10000 µM
  tumor concentration of fructose: > 2 mM
